Assays:
Assay type in all cases: in vivo, Guinea-Pigs
[1] = tested on: bronchospasms elicited by intravenous injections of serotonin; assay: Konzett procedure: bronchodilator activity against serotonin-induced bronchospasm, i.v.; details: Cavia porcellus; guinea pig; spasmogen serotonin i.v.; three logarithmic cumulative intravenous doses
Procedure: (§1) The bronchodilator activity for representative compounds of this invention was determined in Guinea-Pigs against bronchospasms elicited by intravenous injections of serotonin, histamine, and acetylcholine, by the Konzett procedure the details of which are those discussed by J. Lulling, P Lievens, F. El Sayed and J. Prignot, Arzeimittel-Forschung 18, 995 (1968).
(§2) In the table which follows, bronchodilator activity for representative compounds of the invention against spasmogenic agents serotonin, histamine, and acetylcholine is expressed as an ED50 determined from the results obtained with three logarithmic cumulative intravenous doses.

[2] = tested on: bronchospasms elicited by intravenous injections of histamine; assay: Konzett procedure: bronchodilator activity against histamine-induced bronchospasm, i.v.; details: Cavia porcellus; guinea pig; spasmogen histamine i.v.; three logarithmic cumulative intravenous doses
Procedure: as §1, §2

[3] = tested on: bronchospasms elicited by intravenous injections of acetylcholine; assay: Konzett procedure: bronchodilator activity against acetylcholine-induced bronchospasm, i.v.; details: Cavia porcellus; guinea pig; spasmogen acetylcholine i.v.; three logarithmic cumulative intravenous doses
Procedure: as §1, §2

## C=CCCC(C)(O)C/C=C/[C@H]1[C@H](O)CC(=O)[C@@H]1C/C=C\CCCC(=O)O (relative stereo) [dl-11α,16-DIHYDROXY-9-OXO-16-METHYL-5-cis-13-trans-Δ^19 PROSTATRIENOIC ACID]
[1]
  ED50: 3.8 µg/kg
[2]
  ED50: 6.4 µg/kg
[3]
  ED50: 0.0106 mg/kg

From patent US4237307A, “15-Deoxy-16-hydroxy-16-methyl-Δ19-prostaglandins of the E and F series” (American Cyanamid Company, priority 1979, dated 1980)
